Experimental data taken from patent US4870097A, “Pharmaceutical use of derivatives of tryptophan” (priority 1984, dated 1989).

What was measured:
[1] = system: analgesic activity of morphine; assay: Tail Flick Test: increase in the analgesic effect of morphine; type: in vivo, rats; settings: for percentage variation in the latency of the pain sensation, 10' / percentage variation in the latency of the pain sensation, 20' / percentage variation in the latency of the pain sensation, 30' / percentage variation in the latency of the pain sensation, 45' / percentage variation in the latency of the pain sensation, 60' / percentage variation in the latency of the pain sensation, 90' / M(10'-90') average percentage variation: compound 10 mg/kg i.p. + morphine 2 mg/kg (row Morphine: alone); for percentage variation in the latency of the pain sensation, 10' / percentage variation in the latency of the pain sensation, 20' / percentage variation in the latency of the pain sensation, 30' / percentage variation in the latency of the pain sensation, 45' / percentage variation in the latency of the pain sensation, 60' / percentage variation in the latency of the pain sensation, 90': ± S.E.; for M(10'-90') average percentage variation: mean 10'-90'; for Potency ratio relative to morphine alone: rat, in vivo
Procedure: Increase in the analgesic effect of analgesic-narcotic drugs in rats in the Tail Flick Test
The method is that described by Harris et al. (J. Pharmacol. Exp. Ther. 143 (1964) 141-148).
Male rats are used which have a weight of about 150-200 g and which have not been fasting. A point is chosen on the tail and this is irradiated by a heat source (75° C.) and the time (in seconds) for which the animal remains without moving its tail is measured.
A maximum period of time under the heat source of 8 seconds is chosen after which the animal is, in any case, removed in order to avoid tissue damage. The measurement is effected before (controls) and after treatment with the drugs.
. The percentage variation is calculated for each individual animal by the following formula: [formula] The measurements are carried out 10, 20, 30, 45, 60 and 90 minutes after treatment with the analgesics.
The results obtained are given in Table 1 which records the groups treated and the doses administered, the
average percentage variations (calculated on groups of five animals) in […]

[2] = system: guinea pig gall bladder contracted with CCK-8; assay: Anti-CCK activity on guinea pig gall bladders in vitro; type: biochemical; settings: CCK-8 10 ng/ml, concentration antagonising 50% of contracting effect
Procedure: A longitudinal strip of guinea pig gall bladder is placed in a bath of Krebs for isolated organs at a temperature of 32° C. and oxygenated continuously with an oxygen-CO2 mixture (95-5 V/V).
The […] contractions are detected by means of a force transducer and recorded.
The gall bladder is contracted with the use of a CCK-8 solution at a concentration of 10 ng/ml; the antagonistic activity of the compounds of the invention towards the contracting effect of the CCK is determined with the use of different concentrations, the ED50 value, that is the concentration of the compound in mcg/ml capable of antagonising 50% of the contracting effect of the CCK, being determined.
The results obtained are set out in the following table which gives the compounds tested and the ED50 values which are calculated by the method of regression on a test of at least three experiments for each compound studied.

SMILES	percentage variation in the latency of the pain sensation, 10' [1] [%]	percentage variation in the latency of the pain sensation, 20' [1] [%]	percentage variation in the latency of the pain sensation, 30' [1] [%]	percentage variation in the latency of the pain sensation, 45' [1] [%]	percentage variation in the latency of the pain sensation, 60' [1] [%]	percentage variation in the latency of the pain sensation, 90' [1] [%]	M(10'-90') average percentage variation [1] [%]	Potency ratio relative to morphine alone [1]	Anti CCK-8 activity, ED50 [2]
Cc1ccc(COC(=O)N[C@@H](Cc2c[nH]c3ccccc23)C(=O)O)cc1Cl [Compound 10]	51.5 ± 48.9	58.3 ± 16.5	66.0 ± 14.1	56.9 ± 17.0	56.2 ± 23.5	34.2 ± 8.4	55.5	1.86	88.5 µg/mL
N#Cc1ccc(COC(=O)N[C@@H](Cc2c[nH]c3ccccc23)C(=O)O)cc1 [Compound 11]	53.4 ± 13.5	80.0 ± 13.0	90.4 ± 9.6	84.9 ± 15.1	55.6 ± 18.3	50.9 ± 20.7	72.9	2.45	34.3 µg/mL
O=C(N[C@@H](Cc1c[nH]c2ccccc12)C(=O)O)c1ccc(Cl)cc1 [Compound 12]	42.2 ± 19.4	50.5 ± 17.0	69.7 ± 19.8	68.9 ± 13.4	32.7 ± 20.1	16.3 ± 7.4	49.1	1.65	206.0 µg/mL
O=C(N[C@@H](Cc1c[nH]c2ccccc12)C(=O)O)c1ccc(Br)cc1 [Compound 13]	26.7 ± 5.6	72.6 ± 13.0	77.2 ± 10.0	86.2 ± 8.9	38.8 ± 11.3	12.6 ± 9.8	52.3	1.75	158.0 µg/mL
O=C(N[C@@H](Cc1c[nH]c2ccccc12)C(=O)O)c1ccc(F)cc1 [Compound 14]	47.9 ± 21.0	90.2 ± 9.8	80.0 ± 12.5	67.7 ± 19.8	70.5 ± 18.1	61.5 ± 11.8	69.6	2.33	233.2 µg/mL
O=C(N[C@@H](Cc1c[nH]c2ccccc12)C(=O)O)c1ccc(I)cc1 [Compound 15]	77.7 ± 13.8	81.7 ± 12.3	91.0 ± 9.0	89.0 ± 11.0	70.4 ± 17.2	60.3 ± 12.6	78.3	2.63	IN (inactive up to 400 mcg/ml)
O=C(N[C@@H](Cc1c[nH]c2ccccc12)C(=O)O)c1cccc(Cl)c1 [Compound 16]	25.2 ± 21.8	39.5 ± 26.1	37.7 ± 22.9	33.1 ± 19.9	25.9 ± 18.1	9.7 ± 11.9	28.5	0.96	197.5 µg/mL
O=C(N[C@@H](Cc1c[nH]c2ccccc12)C(=O)O)c1ccc(Cl)c(Cl)c1 [Compound 17]	96.9 ± 4.1	100.0 ± 0.0	100.0 ± 0.0	50.3 ± 10.1	85.4 ± 11.5	29.6 ± 4.5	85.0	2.85	398.0 µg/mL
Cc1ccc(C(=O)N[C@@H](Cc2c[nH]c3ccccc23)C(=O)O)cc1 [Compound 18]	7.8 ± 16.1	14.9 ± 17.1	42.1 ± 18.3	26.6 ± 20.5	32.7 ± 25.9	41.1 ± 24.3	27.5	0.93	IN (inactive up to 400 mcg/ml)
CCc1ccc(C(=O)N[C@@H](Cc2c[nH]c3ccccc23)C(=O)O)cc1 [Compound 19]	41.9 ± 12.8	43.9 ± 19.5	61.3 ± 18.1	49.4 ± 19.5	28.5 ± 17.0	14.4 ± 12.9	39.9	1.34	135.2 µg/mL
Cc1cccc(C(=O)N[C@@H](Cc2c[nH]c3ccccc23)C(=O)O)c1 [Compound 21]	30.5 ± 19.7	89.0 ± 11.0	93.9 ± 6.1	85.9 ± 14.1	99.2 ± 0.8	56.3 ± 17.4	77.3	2.59	IN (inactive up to 400 mcg/ml)
CCCc1ccc(C(=O)N[C@@H](Cc2c[nH]c3ccccc23)C(=O)O)cc1 [Compound 22]	18.5 ± 5.3	39.3 ± 10.5	32.2 ± 7.9	37.1 ± 13.9	35.5 ± 10.0	24.5 ± 6.6	31.2	1.05	25.7 µg/mL
